Experiment [1] concerns Mycobacterium tuberculosis. The experiment is described as follows: Antimycobacterial activity against isoniazid/rifampicin-resistant Mycobacterium tuberculosis isolate 16833 after 7 days by microplate alamar blue assay. Type of experiment: functional. As to conditions: isolate 16833, 168 h. On the technique in general: Alamar Blue is a resazurin reagent that responds to reducing activity.

In experiment [2] the test system is Mycobacterium tuberculosis. The experiment is described as follows: Antimycobacterial activity against isoniazid/rifampicin-resistant Mycobacterium tuberculosis isolate 16995 after 7 days by microplate alamar blue assay. Type of experiment: functional. As to conditions: isolate 16995, 168 h.

In brackets after ≈: the same amount, converted by molar mass. Where only a bound is given, the exact number is not on record here.

The MIC is the least concentration at which growth counts as inhibited. Read a high MIC as a need for much substance. For `CCc1nc2ccc(Cl)cn2c1C(=O)NCc1ccc2c(c1)CCN(Cc1ccc(C(F)(F)F)cn1)C2`, the MIC in experiment [1] amounted to 0.049 µM (≈ 0.0259 µg/mL); in experiment [2], 0.046 µM (≈ 0.0243 µg/mL).
Turning to `CCc1nc2ccc(Cl)cn2c1C(=O)NCc1ccc2c(c1)CCN(Cc1ccc(C)cc1)C2`, the MIC in experiment [1] and in experiment [2] was under 0.035 µM each time.
For the compound `CCc1nc2cc(Cl)ccn2c1C(=O)NCc1ccc2c(c1)CCN(Cc1ccc(C(C)(C)C)cc1)C2`, the MIC in experiment [1] and in experiment [2] was under 0.035 µM throughout.
With `CCc1nc2ccc(Cl)cn2c1C(=O)NCc1ccc2c(c1)CCN(Cc1ccc(C(F)(F)F)nc1)C2`, the minimal inhibitory concentration (MIC) in experiment [1] was under 0.035 µM; in experiment [2] it was 0.047 µM (≈ 0.0248 µg/mL).
For the compound `CCc1nc2ccc(Cl)cn2c1C(=O)NCc1ccc2c(c1)CCN(Cc1ccc(F)cc1)C2`, the MIC in experiment [1] and in experiment [2] was under 0.035 µM each time.
`CCc1nc2ccc(Cl)cn2c1C(=O)NCc1ccc2c(c1)CCN(Cc1ccc(C(C)(C)C)cc1)C2`: the MIC in experiment [1] and in experiment [2] was under 0.035 µM in each case.
`CCc1nc2cc(Cl)ccn2c1C(=O)NCc1ccc2c(c1)CCN(Cc1ccc([N+](=O)[O-])o1)C2`: the MIC in experiment [1] is 1.24 µM (≈ 0.612 µg/mL); in experiment [2], 0.44 µM (≈ 0.217 µg/mL).
Regarding `CCc1nc2cc(Cl)ccn2c1C(=O)NCc1ccc2c(c1)CCN(CCc1ccc(C(F)(F)F)cn1)C2`, the MIC was under 0.035 µM in experiment [1] and 0.061 µM (≈ 0.0331 µg/mL) in experiment [2].
`O=c1nc(N2CCN(CC3CCCCC3)CC2)sc2c([N+](=O)[O-])cc(C(F)(F)F)cc12` [MACOZINONE]: the MIC in experiment [1] and in experiment [2] was under 0.035 µM throughout.
Regarding `NNC(=O)c1ccncc1` [ISONIAZID], the MIC in experiment [1] and in experiment [2] was over 40 µM in each case.
`CCc1nc2ccc(Cl)cn2c1C(=O)NCc1ccc(N2CCC(c3ccc(OC(F)(F)F)cc3)CC2)cc1` [TELACEBEC]: the MIC in experiment [1] and in experiment [2] was under 0.035 µM throughout.
Turning to `CCc1nc2ccc(Cl)cn2c1C(=O)NCc1ccc2c(c1)CN(C(C)c1ccc(OC(F)(F)F)cc1)C2` (centres undefined), the MIC in experiment [1] and in experiment [2] was under 0.035 µM throughout.
For the compound `CCc1nc2ccc(Cl)cn2c1C(=O)NCc1ccc2c(c1)CCN(Cc1cc(F)cc(F)c1)C2`, the MIC in experiment [1] and in experiment [2] was under 0.035 µM each time.
On to `CCc1nc2ccc(Cl)cn2c1C(=O)NCc1ccc2c(c1)CN(Cc1ccc(OC(F)(F)F)cc1)C2`, for which the MIC in experiment [1] and in experiment [2] was under 0.035 µM each time.
On to `CCc1nc2cc(Cl)ccn2c1C(=O)NCc1ccc2c(c1)CCN(Cc1ccc(OC)cc1)C2`, for which the results for the MIC in experiment [1] and in experiment [2] were 0.096 µM (≈ 0.0469 µg/mL) and 0.9 µM (≈ 0.44 µg/mL), respectively.
With `CCc1nc2cc(Cl)ccn2c1C(=O)NCc1ccc2c(c1)CCN(Cc1cc(F)cc(F)c1)C2`, the MIC stood at 0.095 µM (≈ 0.047 µg/mL) in experiment [1] and 0.11 µM (≈ 0.0544 µg/mL) in experiment [2].
For the compound `CCc1nc2ccc(Cl)cn2c1C(=O)NCc1ccc2c(c1)CCN(Cc1ccc(Br)cc1)C2`, the MIC in experiment [1] and in experiment [2] was under 0.035 µM throughout.
As for `CCc1nc2ccc(Cl)cn2c1C(=O)NCc1ccc2c(c1)CCN(Cc1ccc(C(F)(F)F)cc1)C2`, the MIC in experiment [1] and in experiment [2] was under 0.035 µM throughout.
Turning to `CCc1nc2ccc(Cl)cn2c1C(=O)NCc1ccc2c(c1)CCN(CCc1ccc(C(F)(F)F)cn1)C2`, the MIC in experiment [1] and in experiment [2] was under 0.035 µM each time.
Take `CO[C@H]1/C=C/O[C@@]2(C)Oc3c(C)c(O)c4c(O)c(c(/C=N/N5CCN(C)CC5)c(O)c4c3C2=O)NC(=O)/C(C)=C\C=C\[C@H](C)[C@H](O)[C@@H](C)[C@@H](O)[C@@H](C)[C@H](OC(C)=O)[C@@H]1C` [RIFAMPIN]: the minimum inhibitory concentration (MIC) in experiment [1] and in experiment [2] was over 40 µM throughout.
As to `CCc1nc2ccc(Cl)cn2c1C(=O)NCc1ccc2c(c1)CCN(Cc1ccc(OC)cc1)C2`, the MIC in experiment [1] and in experiment [2] was under 0.035 µM in each case.
As for `CCc1nc2ccc(Cl)cn2c1C(=O)NCc1ccc2c(c1)CCN(CCc1ccc(C(F)(F)F)nc1)C2`, the MIC in experiment [1] and in experiment [2] was under 0.035 µM each time.
